Source: patent publication US7563800B2, “Substituted pyrazolo[3,4-D]pyrimidines as p38 map kinase inhibitors” (Roche Palo Alto LLC, priority 2006, dated 2009)

Tests used:
p38 MAP kinase = biological target: T1, p38 MAP kinase (Homo sapiens, UniProt Q16539); assay: p38 (MAP) kinase in vitro assay; format: biochemical; conditions: transfer of γ-phosphate from γ-33P-ATP to Myelin Basic Protein; phosphorylated recombinant p38 MAP kinase
T1 construct: made in house; host or cells: E. coli (co-expressed with SEK-1 and MEKK)
Experimental: This example illustrates a p38 (MAP) kinase in vitro assay useful for evaluating the compounds of the invention.
The p38 MAP kinase inhibitory activity of compounds of this invention in vitro was determined by measuring the transfer of the γ-phosphate from γ-^33P-ATP by p-38 kinase to Myelin Basic Protein (MBP), using a minor modification of the method described in Ahn, et al., J. Biol. Chem. 266:4220-4227 (1991).
The phosphorylated form of the recombinant p38 MAP kinase was co-expressed with SEK-1 and MEKK in E. Coli (see, Khokhlatchev, et al., J. Biol. Chem. 272:11057-11062 (1997)) and then purified by affinity chromatography using a Nickel column.
The phosphorylated p38 MAP kinase was diluted in kinase buffer (20 mM 3-(N-morpholino)propanesulfonic acid, pH 7.2, 25 mM β-glycerol phosphate, 5 mM ethylene glycol-bis(beta-aminoethyl ether)-N,N,N′,N′-tetraacetic acid, 1 mM sodium ortho-vanadate, 1 mM dithiothreitol, 40 mM magnesium chloride). Test compound dissolved in DMSO or only DMSO (control) was added and the samples were incubated for 10 min at 30° C. The kinase reaction was initiated by the addition of a substrate cocktail containing MBP and γ-^33P-ATP. […] The phosphorylated MBP was then separated from the residual γ-^33P-ATP using a phosphocellulose membrane (Millipore, Bedfrod, Mass.) and quantitated using a scintillation counter (Packard, Meriden, Conn.).

T1 sequence (Q16539 whole entry): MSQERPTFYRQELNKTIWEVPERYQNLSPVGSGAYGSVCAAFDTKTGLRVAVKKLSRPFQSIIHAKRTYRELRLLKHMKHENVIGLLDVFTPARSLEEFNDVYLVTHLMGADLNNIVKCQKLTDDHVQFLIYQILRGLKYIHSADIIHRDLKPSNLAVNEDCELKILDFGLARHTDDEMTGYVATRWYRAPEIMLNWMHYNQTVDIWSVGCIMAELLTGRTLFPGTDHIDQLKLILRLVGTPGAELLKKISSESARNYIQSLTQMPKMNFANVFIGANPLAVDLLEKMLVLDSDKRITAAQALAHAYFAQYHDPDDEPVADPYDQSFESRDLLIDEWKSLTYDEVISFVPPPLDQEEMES

CC(C)Oc1n[nH]c2nc(Oc3ccc(F)cc3F)ncc12 [Compound 1, 6-(2,4-Difluoro-phenoxy)-3-isopropoxy-1H-pyrazolo[3,4-d]pyrimidine]
IC50 (p38 MAP kinase): ~165 nM | melting point: 143.7 to 145 °C
